Experimental data: patent EP0674635B1, “QUINUCLIDINE DERIVATIVES AS SQUALENE SYNTHASE INHIBITORS” (Syngenta Limited, priority 1992, dated 1994)

Tests used:
[1] = system: de novo hepatic cholesterol synthesis; experiment: Acute rat cholesterol synthesis assay (de novo hepatic cholesterol synthesis from 14C-acetate); assay type: in vivo; details: for ED50: 14C-acetate
Procedure: (b) Acute rat cholesterol synthesis assay.
This is an acute in vivo test in the rat to measure de novo hepatic cholesterol synthesis from exogenously administered ^14C-acetate.
Female rats (35 - 55 g) are housed in reverse lighting conditions (red light from 0200h - 1400h) for a period of about 2 weeks prior to test. Animals are allowed free access to chow and drinking water throughout this period. At test, animals should weigh 125 - 150 g. Test compounds may be administered by oral gavage, dissolved or suspended in 0.5% polysorbate, or by ip or iv dosing. Control animals receive vehicle alone. After 1 hour the rats are injected ip with 25µCi [2-^14C]-acetate (NEN DUPONT. specific activity, 45-60mCi/mmol NEC-085H, or AMERSHAM specific activity, 50-60mCi/mmol CFA 14) in a volume of 0.25 ml saline (100µCi/ml). After a further hour, rats are terminally anaesthetised with halothane and a blood sample obtained from the abdominal vena cava.
1ml of plasma is lyophilised and then saponified in 2ml ethanolic KOH (1 part 33% KOH, 9 parts ethanol) at 75°C for 2 hours. After addition of an equal quantity of water, non-saponifiable lipids are extracted with two 5ml volumes of hexane. The hexane extracts are evaporated to dryness and the residues dissolved in ethanol to determine cholesterol specific radioactivity. ED50 values can be determined in the standard way.

squalene synthase = molecular target: T1, squalene synthase (Rattus norvegicus, UniProt Q02769); experiment: Inhibition of squalene synthase (formation of squalene from tritiated farnesyl pyrophosphate, rat liver microsomal protein); assay type: biochemical; details: at a concentration of 2.5µM, substrate 20µM
T1 construct: from tissue; host or cells: rat liver microsomes
T1 sequence (Q02769 1-416): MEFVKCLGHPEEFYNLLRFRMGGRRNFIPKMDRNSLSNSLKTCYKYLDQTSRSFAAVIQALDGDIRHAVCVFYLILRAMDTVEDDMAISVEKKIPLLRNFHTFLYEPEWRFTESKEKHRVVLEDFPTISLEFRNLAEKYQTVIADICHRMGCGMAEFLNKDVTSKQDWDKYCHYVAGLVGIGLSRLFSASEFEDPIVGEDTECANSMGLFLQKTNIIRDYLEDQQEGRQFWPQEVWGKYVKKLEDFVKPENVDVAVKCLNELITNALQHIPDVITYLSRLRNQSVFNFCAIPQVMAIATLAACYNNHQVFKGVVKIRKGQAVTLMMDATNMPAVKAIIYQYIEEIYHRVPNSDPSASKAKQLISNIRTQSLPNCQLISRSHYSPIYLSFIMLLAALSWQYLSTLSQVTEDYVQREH
Procedure: (a) Inhibition of Squalene synthase
In this test, the ability of a compound to prevent the formation of squalene from a radioactive substrate (tritiated farnesyl pyrophosphate) is assessed.
The test compound is incubated at a concentration of 25 micromolar in 200µl of a buffered solution containing potassium phosphate (50mM), MgCl2 (4.95mM), KF (9.9mM), NADPH (0.9mM) and rat liver microsomal protein (20µg). Rat liver microsomes are prepared by the method described in published European Patent Application No. 324,421 and stored in liquid nitrogen prior to assay. Assay vials are kept at 37°C throughout the incubation.
The reaction is started with the addition of the substrate (1-(^3H]-farnesyl pyrophosphate), final concentration 20µM, and stopped after 15 minutes reaction time with the addition of 50µl of 4% KOH. The reaction products are separated from unreacted substrate after application to a C-18 octadecyl 1ccBond column (Analytichem Int product No. 617101). An aqueous fraction is eluted with 250µl of 0.1M KOH. Squalene is then eluted with 1.0 ml 10% ethylacetate in hexane and radioactivity determined. The difference in radioactivity in the presence and absence of the test compound is used to determine the level of inhibition. […] The IC50 can then be determined from a plot of percentage inhibition against concentration of test compound.

Structure (SMILES) | ED50 [1] | inhibition at 2.5 µM (squalene synthase) | reduction in the rate of cholesterol biosynthesis ([1]; dose not given)
OC1(c2ccc(-c3cnc4ccccc4c3)cc2)CN2CCC1CC2 (centres unmarked) [Example 12, 3-[4-quinol-3-ylphenyl]quinculidin-3-ol] | ~3.8 mg/kg | – | –
OC1(c2ccc(-c3ccc4ccccc4n3)cc2)CN2CCC1CC2 (centres unmarked) [Example 3, 3-[4-(2-quinolyl)phenyl)quinuclidin-3-ol] | ~14 mg/kg | ~71% | 74%
OC1(c2ccc(-c3nc4ccccc4o3)cc2)CN2CCC1CC2 (centres unmarked) [Example 6, 3-[4-(benzoxazol-2-yl)phenyl]quinuclidin-3-ol] | ~4.5 mg/kg | – | –
